# Test system: rumen fluid batch culture
# Assay: Rumen fluid batch culture test: volatile fatty acid, gas (CH4 + H2), protein and amino acid accumulation (Example 2)
# Format: cell-based, steers
# Design: HFo (formate) / HAc (acetate) / HPr (propionate) / HiBu (isobutyrate) / HBu (butyrate) / HiVal (isovalerate) / Total / Caloric Value of H2 / Caloric Value of HFo / Caloric Value of HAc / Caloric Value of HPr / Caloric Value of HiBu / Caloric Value of HBu / Caloric Value of HiVal / Caloric Value of CH3: unit not given here
# Method: The above Formula IV composition was tested to determine its effectiveness as a feed additive for ruminants. The initial tests were in rumen fluid batch culture systems to determine the effect of the compound on volatile fatty acid/methane ratios (VFA/CH4). […] Test Procedure: A 50/50 mixture of ground corn and ground alfalfa was used as the substrate for the subject rumen fluid batch culture test. The compound (Formula IV ) was present in the rumen fluid in three separate test samples at 8.33, 25 and 75 ppm, respectively. On day 1, rumen fluid was obtained from mature fistulated steers on 50/50 concentrate/roughage diets. The rumen fluid (RF) was strained through three layers of gauze cloth and equilibrated with C02 gas. Wheaton serum vials (125 ml) were prepared ahead with 20 ml continuous batch buffer and 100 mg 50/50 ground corn/ground alfalfa. Controls and compounds (dissolved in acetone) were set up according to desired levels. The vials were kept under C02 gas until 20 ml of the strained RF was added. The vials were sealed and incubated at 39°C for 24 hours in a hot water bath. On successive days, gas samples (0.1 ml) were drawn for gas chromatography analysis before transferring 20 ml of the batch culture to another vial containing 20 ml of buffer, 100 mg substrate, and the corresponding compound. The remaining 20 ml was inoculated with 2 ml 6N HC1 and centrifuged at 15,000 rpm for 15 minutes. Ether extracts were prepared for volatile fatty acid (VFA) analysis. Some minor adjustments were made in the termperatures on the Hewlett-Packard 5750 Gas-Liquid Chromatograph used for VFA analysis when the glass column used was changed from 1/4 inch diameter to 1/8 inch diameter. Injection Port = 220°C Column Oven = 170°C Flame Detector = 250°C Only 4 minutes was needed to record the sample instead of the previous 7 minutes.
# [1] = 8.33 μg/ml, total produced on Day 10
substance,measurement,setting,value
"2,2'-(4,5-diphenyl-2H-imidazol-2-ylidene)bispyridine with CuCl2(1/1) [Formula IV Compound]",AA,"8.33 µg/ml, day 2",0.16 µmol/mL
same,CH4,"8.33 µg/ml, day 2",204 µ Moles
same,H2,"8.33 µg/ml, day 2",0 µ Moles
same,HAc (acetate),"8.33 µg/ml, day 2",43.83
same,HBu (butyrate),"8.33 µg/ml, day 2",12.33
same,HFo (formate),"8.33 µg/ml, day 2",1.48
same,HPr (propionate),"8.33 µg/ml, day 2",11.81
same,HiBu (isobutyrate),"8.33 µg/ml, day 2",1.27
same,HiVal (isovalerate),"8.33 µg/ml, day 2",0
same,Protein,"8.33 µg/ml, day 2",0 mg/mL
same,Total,"8.33 µg/ml, day 2",70.71
same,AA,"8.33 µg/ml, day 3",0.13 µmol/mL
same,CH4,"8.33 µg/ml, day 3",157 µ Moles
same,H2,"8.33 µg/ml, day 3",0 µ Moles
same,HAc (acetate),"8.33 µg/ml, day 3",33.35
same,HBu (butyrate),"8.33 µg/ml, day 3",9.87
same,HFo (formate),"8.33 µg/ml, day 3",0.92
same,HPr (propionate),"8.33 µg/ml, day 3",12.17
same,HiBu (isobutyrate),"8.33 µg/ml, day 3",1.14
same,HiVal (isovalerate),"8.33 µg/ml, day 3",1.14
same,Protein,"8.33 µg/ml, day 3",0 mg/mL
same,Total,"8.33 µg/ml, day 3",58.58
same,CH4,"8.33 µg/ml, day 4",164 µ Moles
same,H2,"8.33 µg/ml, day 4",0 µ Moles
same,HAc (acetate),"8.33 µg/ml, day 4",34.54
same,HBu (butyrate),"8.33 µg/ml, day 4",7.77
same,HFo (formate),"8.33 µg/ml, day 4",0.40
same,HPr (propionate),"8.33 µg/ml, day 4",13.16
same,HiBu (isobutyrate),"8.33 µg/ml, day 4",0.68
same,HiVal (isovalerate),"8.33 µg/ml, day 4",2.01
same,Total,"8.33 µg/ml, day 4",58.54
same,CH4,"8.33 µg/ml, day 5",181 µ Moles
same,H2,"8.33 µg/ml, day 5",0 µ Moles
same,HAc (acetate),"8.33 µg/ml, day 5",33.15
same,HBu (butyrate),"8.33 µg/ml, day 5",7.14
same,HFo (formate),"8.33 µg/ml, day 5",0.30
same,HPr (propionate),"8.33 µg/ml, day 5",12.66
same,HiBu (isobutyrate),"8.33 µg/ml, day 5",0.35
same,HiVal (isovalerate),"8.33 µg/ml, day 5",1.17
same,Total,"8.33 µg/ml, day 5",54.76
same,AA,"8.33 µg/ml, day 6",0.11 µmol/mL
same,CH4,"8.33 µg/ml, day 6",176 µ Moles
same,H2,"8.33 µg/ml, day 6",0 µ Moles
same,HAc (acetate),"8.33 µg/ml, day 6",29.32
same,HBu (butyrate),"8.33 µg/ml, day 6",5.69
same,HFo (formate),"8.33 µg/ml, day 6",1.02
same,HPr (propionate),"8.33 µg/ml, day 6",11.08
same,HiBu (isobutyrate),"8.33 µg/ml, day 6",0.46
same,HiVal (isovalerate),"8.33 µg/ml, day 6",0
same,Protein,"8.33 µg/ml, day 6",0 mg/mL
same,Total,"8.33 µg/ml, day 6",47.57
same,AA,"8.33 µg/ml, day 7",0.11 µmol/mL
same,CH4,"8.33 µg/ml, day 7",139 µ Moles
same,H2,"8.33 µg/ml, day 7",0 µ Moles
same,HAc (acetate),"8.33 µg/ml, day 7",29.53
same,HBu (butyrate),"8.33 µg/ml, day 7",4.39
same,HFo (formate),"8.33 µg/ml, day 7",0.73
same,HPr (propionate),"8.33 µg/ml, day 7",13.12
same,HiBu (isobutyrate),"8.33 µg/ml, day 7",0.76
same,HiVal (isovalerate),"8.33 µg/ml, day 7",0.77
same,Protein,"8.33 µg/ml, day 7",0 mg/mL
same,Total,"8.33 µg/ml, day 7",49.29
same,AA,"8.33 µg/ml, day 8",0.09 µmol/mL
same,CH4,"8.33 µg/ml, day 8",158 µ Moles
same,H2,"8.33 µg/ml, day 8",0 µ Moles
same,HAc (acetate),"8.33 µg/ml, day 8",26.19
same,HBu (butyrate),"8.33 µg/ml, day 8",5.49
same,HFo (formate),"8.33 µg/ml, day 8",0.55
same,HPr (propionate),"8.33 µg/ml, day 8",13.48
same,HiBu (isobutyrate),"8.33 µg/ml, day 8",0.65
same,HiVal (isovalerate),"8.33 µg/ml, day 8",2.20
same,Protein,"8.33 µg/ml, day 8",0 mg/mL
same,Total,"8.33 µg/ml, day 8",48.55
same,AA,"8.33 µg/ml, day 9",0.10 µmol/mL
same,CH4,"8.33 µg/ml, day 9",157 µ Moles
same,H2,"8.33 µg/ml, day 9",0 µ Moles
same,HAc (acetate),"8.33 µg/ml, day 9",27.31
same,HBu (butyrate),"8.33 µg/ml, day 9",3.06
same,HFo (formate),"8.33 µg/ml, day 9",0.50
same,HPr (propionate),"8.33 µg/ml, day 9",13.73
same,HiBu (isobutyrate),"8.33 µg/ml, day 9",0.58
same,HiVal (isovalerate),"8.33 µg/ml, day 9",0.55
same,Protein,"8.33 µg/ml, day 9",0 mg/mL
same,Total,"8.33 µg/ml, day 9",45.71
same,AA,"8.33 µg/ml, day 10",0.24 µmol/mL
same,CH4,"8.33 µg/ml, day 10",159 µ Moles
same,H2,"8.33 µg/ml, day 10",0 µ Moles
same,HAc (acetate),"8.33 µg/ml, day 10",24.52
same,HBu (butyrate),"8.33 µg/ml, day 10",2.56
same,HFo (formate),"8.33 µg/ml, day 10",0.23
same,HPr (propionate),"8.33 µg/ml, day 10",12.89
same,HiBu (isobutyrate),"8.33 µg/ml, day 10",0.21
same,HiVal (isovalerate),"8.33 µg/ml, day 10",0.05
same,Protein,"8.33 µg/ml, day 10",0 mg/mL
same,Total,"8.33 µg/ml, day 10",40.45
same,Caloric Value of CH3,"8.33 µg/ml, produced on Day 10",33.54
same,Caloric Value of H2,"8.33 µg/ml, produced on Day 10",0
same,Caloric Value of HAc,"8.33 µg/ml, produced on Day 10",90.96
same,Caloric Value of HBu,"8.33 µg/ml, produced on Day 10",21.42
same,Caloric Value of HFo,"8.33 µg/ml, produced on Day 10",0
same,Caloric Value of HPr,"8.33 µg/ml, produced on Day 10",87.89
same,Caloric Value of HiBu,"8.33 µg/ml, produced on Day 10",0
same,Caloric Value of HiVal,"8.33 µg/ml, produced on Day 10",0
same,"Caloric Value, Total (VFA's)","8.33 µg/ml, produced on Day 10",200.27
same,Total Cal in VFA & Gas,"8.33 µg/ml, produced on Day 10",233.79 cal
same,CH4 produced on Day 10,[1],159
same,H2 produced on Day 10,[1],0
same,HAc (acetate) produced on Day 10,[1],434.4
same,HBu (butyrate) produced on Day 10,[1],41.2
same,HFo (formate) produced on Day 10,[1],0
same,HPr (propionate) produced on Day 10,[1],240.8
same,HiBu (isobutyrate) produced on Day 10,[1],0
same,HiVal (isovalerate) produced on Day 10,[1],0
same,Total VFA's produced on Day 10,[1],716.4
same,methane production,"25 µg/ml, by day 10",seemed to be recovering
same,AA,"25 µg/ml, day 2",0.16 µ Moles/ml
same,CH4,"25 µg/ml, day 2",197 µ Moles
same,H2,"25 µg/ml, day 2",0 µ Moles
same,HAc (acetate),"25 µg/ml, day 2",46.39
same,HBu (butyrate),"25 µg/ml, day 2",10.94
same,HFo (formate),"25 µg/ml, day 2",1.24
same,HPr (propionate),"25 µg/ml, day 2",12.69
same,HiBu (isobutyrate),"25 µg/ml, day 2",1.66
same,HiVal (isovalerate),"25 µg/ml, day 2",2.55
same,Protein,"25 µg/ml, day 2",0 mg/mL
same,Total,"25 µg/ml, day 2",75.45
same,AA,"25 µg/ml, day 3",0.17 µ Moles/ml
same,CH4,"25 µg/ml, day 3",166 µ Moles
same,H2,"25 µg/ml, day 3",0 µ Moles
same,HAc (acetate),"25 µg/ml, day 3",35.36
same,HBu (butyrate),"25 µg/ml, day 3",7.27
same,HFo (formate),"25 µg/ml, day 3",1.05
same,HPr (propionate),"25 µg/ml, day 3",12.93
same,HiBu (isobutyrate),"25 µg/ml, day 3",1.21
same,HiVal (isovalerate),"25 µg/ml, day 3",0.59
same,Protein,"25 µg/ml, day 3",0 mg/mL
same,Total,"25 µg/ml, day 3",58.40
same,CH4,"25 µg/ml, day 4",164 µ Moles
same,H2,"25 µg/ml, day 4",0 µ Moles
same,HAc (acetate),"25 µg/ml, day 4",36.52
same,HBu (butyrate),"25 µg/ml, day 4",6.38
same,HFo (formate),"25 µg/ml, day 4",0.71
same,HPr (propionate),"25 µg/ml, day 4",14.32
same,HiBu (isobutyrate),"25 µg/ml, day 4",0.86
same,HiVal (isovalerate),"25 µg/ml, day 4",1.33
same,Total,"25 µg/ml, day 4",60.11
same,CH4,"25 µg/ml, day 5",170 µ Moles
same,H2,"25 µg/ml, day 5",0 µ Moles
same,HAc (acetate),"25 µg/ml, day 5",34.06
same,HBu (butyrate),"25 µg/ml, day 5",6.63
same,HFo (formate),"25 µg/ml, day 5",0.44
same,HPr (propionate),"25 µg/ml, day 5",14.87
same,HiBu (isobutyrate),"25 µg/ml, day 5",0.56
same,HiVal (isovalerate),"25 µg/ml, day 5",0.78
same,Total,"25 µg/ml, day 5",57.33
same,AA,"25 µg/ml, day 6",0.11 µ Moles/ml
same,CH4,"25 µg/ml, day 6",143 µ Moles
same,H2,"25 µg/ml, day 6",0 µ Moles
same,HAc (acetate),"25 µg/ml, day 6",28.98
same,HBu (butyrate),"25 µg/ml, day 6",4.26
same,HFo (formate),"25 µg/ml, day 6",0.68
same,HPr (propionate),"25 µg/ml, day 6",13.87
same,HiBu (isobutyrate),"25 µg/ml, day 6",0.53
same,HiVal (isovalerate),"25 µg/ml, day 6",0.20
same,Protein,"25 µg/ml, day 6",0.01 mg/mL
same,Total,"25 µg/ml, day 6",48.49
same,AA,"25 µg/ml, day 7",0.24 µ Moles/ml
same,CH4,"25 µg/ml, day 7",58 µ Moles
same,H2,"25 µg/ml, day 7",8 µ Moles
same,HAc (acetate),"25 µg/ml, day 7",22.54
same,HBu (butyrate),"25 µg/ml, day 7",5.02
same,HFo (formate),"25 µg/ml, day 7",0.61
same,HPr (propionate),"25 µg/ml, day 7",13.54
same,HiBu (isobutyrate),"25 µg/ml, day 7",0.75
same,HiVal (isovalerate),"25 µg/ml, day 7",0.51
same,Protein,"25 µg/ml, day 7",0 mg/mL
same,Total,"25 µg/ml, day 7",42.95
same,AA,"25 µg/ml, day 8",0.22 µ Moles/ml
